In assay [1] the target is T1, Type-1 angiotensin II receptor (Homo sapiens, UniProt P30556).
T1 sequence (P30556 whole entry): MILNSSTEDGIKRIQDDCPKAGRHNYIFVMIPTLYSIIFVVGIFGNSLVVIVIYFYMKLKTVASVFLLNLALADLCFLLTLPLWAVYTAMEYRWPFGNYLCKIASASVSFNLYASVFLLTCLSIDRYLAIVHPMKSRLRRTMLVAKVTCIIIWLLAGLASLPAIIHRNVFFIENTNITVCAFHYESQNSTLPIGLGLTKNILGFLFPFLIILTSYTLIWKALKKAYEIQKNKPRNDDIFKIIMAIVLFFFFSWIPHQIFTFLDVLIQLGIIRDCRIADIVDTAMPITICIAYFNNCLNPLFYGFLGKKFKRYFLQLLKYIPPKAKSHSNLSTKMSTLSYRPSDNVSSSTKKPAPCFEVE
As to the kind of experiment: AT1 receptor antagonists, dose response, selectivity assay for APJ receptor antagonist project, cell-based, uHTS hits (AID 463214).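 Note: antagonist potency against angiotensin II stimulated AT1 response.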 The format is functional.

The next assay has as its target T2, Protein RecA (Mycobacterium tuberculosis, UniProt P9WHJ3).
T2 sequence (P9WHJ3 whole entry): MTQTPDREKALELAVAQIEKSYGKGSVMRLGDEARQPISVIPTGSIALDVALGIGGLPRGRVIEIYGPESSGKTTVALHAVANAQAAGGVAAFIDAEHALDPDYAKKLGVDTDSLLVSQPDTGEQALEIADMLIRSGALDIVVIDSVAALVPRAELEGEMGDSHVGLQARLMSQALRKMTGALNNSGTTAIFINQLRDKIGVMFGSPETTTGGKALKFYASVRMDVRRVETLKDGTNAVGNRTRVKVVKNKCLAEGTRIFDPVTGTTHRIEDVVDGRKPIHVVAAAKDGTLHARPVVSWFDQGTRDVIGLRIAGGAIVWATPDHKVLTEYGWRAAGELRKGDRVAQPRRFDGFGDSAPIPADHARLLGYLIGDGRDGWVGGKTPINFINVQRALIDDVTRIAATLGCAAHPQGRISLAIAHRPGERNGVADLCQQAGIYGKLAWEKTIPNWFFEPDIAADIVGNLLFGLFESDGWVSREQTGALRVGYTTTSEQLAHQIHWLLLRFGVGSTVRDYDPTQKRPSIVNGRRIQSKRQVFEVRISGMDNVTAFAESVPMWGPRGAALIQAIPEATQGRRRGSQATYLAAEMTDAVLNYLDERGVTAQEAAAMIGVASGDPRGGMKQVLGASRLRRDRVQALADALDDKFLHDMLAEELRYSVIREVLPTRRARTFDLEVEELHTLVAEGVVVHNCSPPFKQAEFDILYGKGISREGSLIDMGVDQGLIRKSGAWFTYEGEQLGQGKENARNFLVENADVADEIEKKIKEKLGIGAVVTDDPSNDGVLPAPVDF
As to the kind of experiment: Fluorescence Cell-Free Homogeneous Dose Retest to Identify Inhibitors of RecA-Intein Splicing Activity. [Related pubchem assays (depositor defined):AID2097, AID2223, AID489010, AID492950]. In kind it is functional.

Assay [2] has as its target T3, Replicative DNA helicase DnaB (Mycobacterium tuberculosis, UniProt P9WMR3).
T3 sequence (P9WMR3 whole entry): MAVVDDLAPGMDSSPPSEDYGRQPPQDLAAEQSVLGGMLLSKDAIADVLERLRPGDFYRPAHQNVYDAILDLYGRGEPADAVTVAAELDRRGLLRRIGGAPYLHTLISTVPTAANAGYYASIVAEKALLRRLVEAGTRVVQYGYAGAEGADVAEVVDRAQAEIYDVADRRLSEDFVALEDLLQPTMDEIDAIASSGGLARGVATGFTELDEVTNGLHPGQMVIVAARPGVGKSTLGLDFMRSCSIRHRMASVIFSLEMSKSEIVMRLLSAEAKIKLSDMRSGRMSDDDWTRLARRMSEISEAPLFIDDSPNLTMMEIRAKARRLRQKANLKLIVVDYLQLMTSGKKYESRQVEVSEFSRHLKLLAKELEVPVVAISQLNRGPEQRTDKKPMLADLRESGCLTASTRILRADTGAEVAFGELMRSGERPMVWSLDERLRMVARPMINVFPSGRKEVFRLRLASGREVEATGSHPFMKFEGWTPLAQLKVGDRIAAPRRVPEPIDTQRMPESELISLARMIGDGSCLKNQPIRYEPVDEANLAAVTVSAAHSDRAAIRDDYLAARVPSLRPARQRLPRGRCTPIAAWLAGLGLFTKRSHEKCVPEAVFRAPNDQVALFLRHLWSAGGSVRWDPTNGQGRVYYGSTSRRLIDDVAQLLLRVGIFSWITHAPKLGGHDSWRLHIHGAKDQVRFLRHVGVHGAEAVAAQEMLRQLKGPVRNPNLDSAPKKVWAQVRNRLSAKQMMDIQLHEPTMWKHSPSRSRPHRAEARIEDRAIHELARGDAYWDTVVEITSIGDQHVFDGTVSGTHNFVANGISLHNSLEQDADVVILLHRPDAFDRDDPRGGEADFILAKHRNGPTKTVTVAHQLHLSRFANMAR
Briefly: DnaB intein splicing inhibitors, dose response, biochemical, cell-free fluorescence (AID 449749). In kind it is functional.

For another assay, the target named is Beta-galactosidase (Escherichia coli, UniProt Q8VNN2). As to the kind of experiment: PubChem AID 485352. In kind it is functional.
Sequence of Beta-galactosidase (Q8VNN2 whole entry): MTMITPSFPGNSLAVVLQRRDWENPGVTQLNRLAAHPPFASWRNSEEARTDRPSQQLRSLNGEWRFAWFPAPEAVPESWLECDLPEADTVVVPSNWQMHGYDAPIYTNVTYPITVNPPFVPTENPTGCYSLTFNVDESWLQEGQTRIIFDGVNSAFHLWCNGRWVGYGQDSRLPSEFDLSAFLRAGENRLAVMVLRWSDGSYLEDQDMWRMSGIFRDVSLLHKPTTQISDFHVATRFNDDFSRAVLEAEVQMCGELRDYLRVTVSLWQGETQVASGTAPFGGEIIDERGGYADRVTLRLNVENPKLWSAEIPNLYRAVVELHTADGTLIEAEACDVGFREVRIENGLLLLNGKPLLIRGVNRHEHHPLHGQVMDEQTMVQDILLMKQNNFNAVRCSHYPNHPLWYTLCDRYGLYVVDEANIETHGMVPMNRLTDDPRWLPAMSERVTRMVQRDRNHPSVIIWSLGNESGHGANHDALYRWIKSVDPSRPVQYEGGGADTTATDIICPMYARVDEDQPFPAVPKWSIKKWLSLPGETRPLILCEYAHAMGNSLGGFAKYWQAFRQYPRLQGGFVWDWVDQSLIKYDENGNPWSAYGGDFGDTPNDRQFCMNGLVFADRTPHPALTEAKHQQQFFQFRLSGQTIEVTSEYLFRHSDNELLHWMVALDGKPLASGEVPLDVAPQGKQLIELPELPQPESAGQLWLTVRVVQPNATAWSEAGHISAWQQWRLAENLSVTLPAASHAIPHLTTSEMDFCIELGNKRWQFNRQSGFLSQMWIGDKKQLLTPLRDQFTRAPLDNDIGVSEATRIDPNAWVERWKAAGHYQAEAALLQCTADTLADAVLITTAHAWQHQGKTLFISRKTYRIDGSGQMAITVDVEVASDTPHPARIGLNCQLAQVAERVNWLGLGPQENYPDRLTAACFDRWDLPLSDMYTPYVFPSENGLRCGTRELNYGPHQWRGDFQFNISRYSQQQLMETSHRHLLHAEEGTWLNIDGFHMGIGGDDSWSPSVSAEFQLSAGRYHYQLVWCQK
For another assay, the system named is Streptococcus. As to the kind of experiment: Group A Streptococcus viability loss, dose response, counter-screen for streptokinase expression inhibitor project, luminescence, BacTiterGlo (AID 1915).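 Note: potency for reduction of bacterial viability or growth.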 In kind it is functional, organism-based.
For assay [3], the system named is Streptococcus sp. 'group A'. Briefly: growth inhibition of control SK(-) GAS strain, dose response, counter-screen for streptokinase expression inhibitor project, luminescence, kanamycin, BacTiterGlo, confirmation (AID 1900). The format is functional, organism-based.
The nature of assay [4]: cytotoxicity toward NIH3T3 fibroblasts, dose response, counter-screen, cell-based, ATP luminescence, mouse fibroblasts (AID 2010).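 Note: cells exposed to compound for about 90 hours before reading.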 The format is functional.
A further assay deals with T4, Streptokinase A (Streptococcus pyogenes serotype M1, UniProt P10520).
T4 sequence (P10520 whole entry): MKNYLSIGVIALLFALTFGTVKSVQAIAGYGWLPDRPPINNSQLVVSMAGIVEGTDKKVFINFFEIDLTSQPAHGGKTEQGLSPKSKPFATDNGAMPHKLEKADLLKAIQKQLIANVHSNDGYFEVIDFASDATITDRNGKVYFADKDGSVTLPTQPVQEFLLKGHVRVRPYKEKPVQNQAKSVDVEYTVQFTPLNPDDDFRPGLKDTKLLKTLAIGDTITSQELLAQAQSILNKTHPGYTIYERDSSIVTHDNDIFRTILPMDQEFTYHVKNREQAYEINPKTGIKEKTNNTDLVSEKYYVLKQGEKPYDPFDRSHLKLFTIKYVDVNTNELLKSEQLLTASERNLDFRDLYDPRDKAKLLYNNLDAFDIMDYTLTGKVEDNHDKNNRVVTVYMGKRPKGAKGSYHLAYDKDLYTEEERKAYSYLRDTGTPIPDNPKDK
Briefly: S. pyogenes streptokinase expression inhibitors, potency, dose response, plasminogen activation absorbance, OD405 (AID 1914).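 Note: secreted streptokinase activity via plasminogen activation per viability signal from cell pellet.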 In kind it is functional, Streptococcus pyogenes M1 GAS.

A short description of assay [5]: inhibitors of intracellular T. cruzi replication, confirmation, NIH3T3 host cells, beta-gal luminescence (AID 2044).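 Note: intracellular parasites grown in NIH/3T3 mouse fibroblasts as host cells; luminescent beta-galactosidase reporter signal from transgenic T. cruzi replicating inside host cells; inhibitors lower the luminescence signal.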 The format is functional, cell-based.
Another assay relates to Vero. As to the kind of experiment: cells. In kind it is functional. Conditions: Chlorocebus sabaeus.
The nature of assay [6]: microbe, parasite or virus in culture. In kind it is functional. Conditions: Mycobacterium tuberculosis.
For the next assay, the target named is Nonstructural protein 1 (Influenza A virus, UniProt Q194T2). In kind it is functional, Influenza A virus (A/California/07/2009(H1N1)).
Sequence of Nonstructural protein 1 (Q194T2 whole entry): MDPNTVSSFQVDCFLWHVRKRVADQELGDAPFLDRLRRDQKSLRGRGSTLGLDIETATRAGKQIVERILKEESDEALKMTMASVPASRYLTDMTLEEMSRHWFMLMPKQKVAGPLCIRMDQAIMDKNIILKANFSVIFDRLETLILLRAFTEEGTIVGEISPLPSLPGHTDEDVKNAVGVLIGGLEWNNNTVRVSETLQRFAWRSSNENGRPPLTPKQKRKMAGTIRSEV
For assay [7], the target named is T5, Heat shock factor protein 1 (Mus musculus, UniProt P38532).
T5 sequence (P38532 whole entry): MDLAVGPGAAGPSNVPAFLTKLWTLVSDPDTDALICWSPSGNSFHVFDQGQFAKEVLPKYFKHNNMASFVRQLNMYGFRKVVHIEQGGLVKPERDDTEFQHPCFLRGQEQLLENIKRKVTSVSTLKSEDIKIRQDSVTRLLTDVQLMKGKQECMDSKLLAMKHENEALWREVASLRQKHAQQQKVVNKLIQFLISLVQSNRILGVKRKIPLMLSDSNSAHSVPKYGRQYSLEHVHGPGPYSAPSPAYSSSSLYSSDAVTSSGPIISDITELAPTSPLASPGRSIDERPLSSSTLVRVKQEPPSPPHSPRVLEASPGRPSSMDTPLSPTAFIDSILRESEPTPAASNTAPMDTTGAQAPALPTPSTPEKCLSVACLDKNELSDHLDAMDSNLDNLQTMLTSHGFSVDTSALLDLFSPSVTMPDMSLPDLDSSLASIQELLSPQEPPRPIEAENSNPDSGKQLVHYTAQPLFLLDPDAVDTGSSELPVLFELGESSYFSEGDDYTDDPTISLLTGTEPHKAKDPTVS
As to the kind of experiment: HSF1 potentiators in luciferase reporter cells, confirmation, cell-based, NIH3T3, luminescence, dose retest (AID 435004).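 Note: stress induced by proteasome inhibitor MG132 added 30 min after compound; luciferase reporter driven by HSF1 response element in NIH3T3 cells; actives raise luminescence as potentiators of the MG132 stress response.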 In kind it is functional.

A short description of assay [8]: Luminescence Cell-Based Dose Response HTS to Identify Inhibitors of 5'UTR Stem-Loop Driven Prion Protein mRNA Translation in H4 Neuroglioblastoma Cells. [Related pubchem assays: 1827 (Project Summary), 1813 (Primary HTS)]. The format is functional.
The nature of assay [9]: cells. The format is functional, cell-based.
A short description of assay [10]: inhibitors of firefly luciferase expression or activity, dose response, H4 neuroglioma cells, luminescence (AID 1990). The format is functional, cell-based.
Assay [11] is described as follows: inhibitors of SNCA 5'UTR-driven reporter translation, confirmation, H4 neuroglioma cells, luminescence (AID 1988). The format is functional, cell-based.
A further assay has as its system INS1. As to the kind of experiment: beta cell apoptosis inhibitors, cytokine rescue, dose response, luminescence, retest (AID 449756).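 Note: cell death triggered by IL-1 beta plus TNF-alpha plus IFN-gamma mixture; protective hits raise ATP signal compared with cytokine alone wells.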 The format is functional, cell-based. Conditions: Rattus norvegicus.
Assay [12] can be described thus: cells. The format is functional, cell-based. The source holds these as a separate data set.

SMILES strings stand for the structures. Active and inactive are the calls of the source. Cut-off read from the data, not from the text of the source, for most assays here: actives have a measured EC50 and inactives only a lower limit.

As for `CC(C)OC(=O)CN1C(=O)C(=O)c2ccccc21`, the IC50 in [1] is 5.32 µM (active). Also, the values for the EC50 at Protein RecA and on Beta-galactosidase were 8.52 µM (active) and > 40 µM (inactive), respectively. For the same compound, the AC50 in assay [2] was 14.3 µM (active).
In the case of `COc1ccc(OC)c(/C=C/c2ccc3cccc(O)c3n2)c1`, the EC50 with Streptococcus is 10.7 µM (active); in assay [3], 0.323 µM (active); in assay [4] it was > 30 µM (not active); at Streptokinase A, > 150 µM (not active); in assay [5], 2.07 µM (active). Moreover, the CC50 in the assay on Vero was 9.5 µM (active).
`CCN(CC)S(=O)(=O)c1ccc2oc(SCC(=O)Nc3cc(C)on3)nc2c1`: in assay [1], the IC50 is > 40 µM (not active). In addition, the EC50 is 5.9 µM (active) in assay [4], > 30 µM (not active) in [5] and > 40 µM (inactive) at Beta-galactosidase. Also, in assay [6], the CC50 is 11.6 µM (active).
`CCc1cc2c(=O)[nH]c(-c3ccccn3)nc2s1`: the IC50 in [1] was 2.91 µM (active); at Nonstructural protein 1 it was 14.3 µM (active). In addition, the EC50 at Beta-galactosidase is > 40 µM (inactive); in [7], 12.9 µM (active).
As for `Cn1cccc1/C=C(/C#N)C(N)=S`, in assay [1], the IC50 is > 40 µM (not active). The EC50 at Beta-galactosidase is > 40 µM (inactive).
For the compound `O=C(N/N=C(\c1ccccc1)c1ccccn1)c1ccccc1Cl`, the EC50 is 5.45 µM (active) in assay [4]; 4.49 µM (active) in assay [8]; 12.1 µM (active) in “cells [9]”; 2.03 µM (active) in assay [10]; 0.852 µM (active) in [5]; 0.472 µM (active) in [11]. In “cells [12]”, the EC50 is > 350 µM (not active). Also, the CC50 is 5.75 µM (active) in [6] and 6.17 µM (active) with Vero. In addition, in the assay with INS1, the AC50 is 1.27 µM (active).
